Entries after “also recorded” stand apart in the source; their conditions may differ. Read-outs that look alike come from different tables or passages of the source. A value given as a limit tells only on which side of the number the result lay.

The conditions of data set [1]: in vivo; cited from earlier work.
For data set [2] the following is noted: cited from earlier work.
Data set [3] has as its system dopamine beta hydroxylase. The conditions noted are these: cited from earlier work.
In a further data set the test system is aldehyde dehydrogenase. To be noted: thiol groups, cited from earlier work.
The nature of data set [4]: Local and systemic toxicity after subcutaneous implantation in rats.
From the text: Two groups of animals were studied: a test group receiving the subcutaneous C-14-disulfiram-PLGA implant, and a control group receiving subcutaneous uncompounded C-14-disulfiram. Each group comprised five Wistar CD-1 male rats weighing between 100-120 g. After anesthesia with Penthrane (Abbott Laboratories), a slit was cut in the skin of the interscapular region and a small subcutaneous pocket was dissected, large enough for the introduction of the 1/8 inch diameter rods. Each rat received 500 mg of the 20% composite rods (containing 100 mg C-14-disulfiram and 400 mg PLFA) and the wound was closed with clips. […] No attempt was made to preserve strict asepsis during these procedures.
All rats were individually housed in metabolic cages to facilitate the separate collection of urine and feces. Prior to implantation, their fecal and urine samples were collected to determine background counts. Subsequent samples of all excreted urine and feces were collected on days 1,2,7,9,11, 15,18,22,25,29,32,39,46,53,60,67,74,81 and 88 after implantation. Urine samples were assayed for C-14 labelled material in a Beckman LS-230 liquid scintillation counter, and the excretion was calculated as the mass of implanted disulfiram which contained an equivalent amount of radiolabel. Feces were combusted to 14-CO2 with a Harvey Biological oxidizer and absorbed in oxyfluor-CO2 (New England Nuclear) for counting. […]
Data set [5] is described as follows: Gamma irradiation: sterility and chemical stability. Type of data set: physicochemical. To be noted: after gamma irradiation. The text has this:
In order to be suitable for injection, the formulations must be sterile. […] Gamma irradiation was therefore used as the best available technique.
A Best Industries Gammaradiator 100 Cs-137 irradiator was used. The disulfiram unit doses were placed in the 20×20 cm irradiation chamber, 30 cm from a 1800 curie Cesium-137 source emitting 660 KeV gamma rays. The exposure rate at the point of irradiation was 90 R/min. A filter was placed in the beam to ensure a uniform exposure at the floor of the irradiation chamber. A total exposure of 50,000 R was administered. Prior to injection, approximately 10 cc of sterile normal saline was drawn up into the syringe which was then shaken vigorously to suspend the DSF powder. The resultant slurry could then be readily injected through a wide bore (e.g. 14 gauge) needle.

The subject of the next data set is acetaldehyde in breath. The data set is described as follows: Clinical study: peak acetaldehyde concentration in the breath after alcohol challenge. The class given is in vivo, human. The protocol: (§1) The method utilizes a Pyrex glass gas-collecting tube (internal volume approximately 300 cc) sealed at both ends with Teflon® taps. A side-port sealed with a Neoprene rubber septum permits sampling of the contents. The tube is first heated to approximately 70° C. to prevent any condensation from the breath. The subject then blows forcefully into the tube, and the Teflon taps are closed at the end of expiration while the tube is still in the subject's mouth. The tube is then taken to the laboratory, where, after reheating to 70° C., a 2.0 ml sample of the breath is aspirated through the Neoprene septum with a heated syringe and immediately injected into a Gas Chromatograph, for assay of ethanol and acetaldehyde by a standard flame-ionization detection technique. (The method has been described by Phillips et al. in Alcoholism: Clinical & Experimental Research 1984; 8:293-296.)
(§2) Each subject discontinued oral disulfiram one week before commencing the study. On day zero, each fasted from the preceding midnight, then received a standard alcohol challenge (0.15 G/kg). After eating a meal, and confirming by breath testing (with an Alco-Sensor III) that the blood ethanol concentration had fallen to zero, subject No. 1 received a dose of 1 G disulfiram subcutaneously. […]

Data set [6] has as its system alcoholic human subjects. Put plainly: Clinical study: subjective and clinical response to alcohol challenge. Type of data set: in vivo. How it is done: (§3) Two alcoholic human subjects were studied: Subject No.1 and subject No. 2 a person.
(§4) Each subject discontinued oral disulfiram one week before commencing the study. On day zero, each fasted from the preceding midnight, then received a standard alcohol challenge (0.15 G/kg). After eating a meal, and confirming by breath testing (with an Alco-Sensor III) that the blood ethanol concentration had fallen to zero, subject No. 1 received a dose of 1 G disulfiram subcutaneously. The drug was administered in the upper outer quadrant of the right buttock with aseptic precautions using a 14 G needle, after preparing the skin with infiltration of local anesthetic. A control injection of sterile normal saline was administered to the left buttock. Subject No. 2 received 2 G disulfiram in a similar fashion.
(§5) A similar alcohol challenge was then repeated on days 7, 14, 21, and 28 after the injection. A physical examination was performed at each visit and the injection site examined.
Subjective responses--the subject was asked to state aloud the number in the following table which most closely accorded with the way he or she felt at the moment. This response was executed every five minutes, following the alcohol challenge, for a two hour period.

In data set [7] the test system is alcoholic human subjects. The data set is described as follows: Clinical study: tolerability, injection site and systemic effects. The class given is in vivo. To be noted: 250 mg every morning, two subjects. The protocol: as §3, §4, §5
A further data set relates to alcoholic humans. The conditions noted are these: cited from earlier work.
The test system of a further data set is ethanol in breath. Put plainly: Clinical study: peak ethanol concentration in the breath after alcohol challenge. The conditions noted are these: compared to peak prior to treatment. Type of data set: in vivo, human. How it is done:
as §1, §2

[8] abbreviates: pre-treatment with DSF, Lundwall et al.

As to `S=C=S` [carbon disulfide], the excretion of metabolites entry in data set [1] was “a volatile compound excreted in the breath”.
On to `CCN(CC)C(=S)SSC(=S)N(CC)CC` [disulfiram], for which the “solubility of DSF in water” value in data set [2] is listed as 0.02 G/100 ml. For the same compound, in data set [2] (listed as DSF), the “solubility in water (in words)” value was “poorly soluble in water; also recorded: near insolubility in water”. In addition, the “inhibition of dopamine beta hydroxylase” value in data set [3] was “inhibits dopamine beta hydroxylase”. The “inactivation of aldehyde dehydrogenase” value in the data set with aldehyde dehydrogenase is “inactivating aldehyde dehydrogenase”. Also, the “inactivation of aldehyde dehydrogenase” value in the data set on aldehyde dehydrogenase (listed as DSF) is “inactivates aldehyde dehydrogenase by irreversible disulfide interchange reactions with thiol groups”. The “local or systemic toxicity” value in data set [4] is “No evidence of local or systemic toxicity was observed”. For the same compound, the “chemical stability of irradiated samples” value in data set [5] is recorded as “did not demonstrate any reduction in the concentration of disulfiram”. For the same compound, the “peak acetaldehyde concentration in breath, Subject No. 1” value in the data set with acetaldehyde in breath (1 G, compared to peak prior to treatment) is “elevated peak in Subject No. 1 on day 7”. Moreover, in the data set on acetaldehyde in breath (FIG. 3, after injection of DSF), the “acetaldehyde following consumption of alcohol” value was “elevated levels of acetaldehyde”. In addition, in data set [1], the excretion of metabolites entry is “the breakdown products are promptly excreted”; the “metabolism in the blood and liver” value was “very rapidly metabolized in the blood and liver”. The “onset of diaphoresis after ethanol challenge, Subject No. 1” value with alcoholic human subjects [6] (1 G disulfiram, day 7) is 20 min. Further, the “diaphoresis, Subject No. 1” value with alcoholic human subjects [6] (1 G disulfiram, day 7, duration of the diaphoretic period) was found to be 10 min. For the same compound, the “subjective effects following ethanol challenges, Subject No. 1” value with alcoholic human subjects [6] (1 G disulfiram, entire four weeks) was “no adverse subjective effects”. Moreover, the “subjective discomfort following ethanol challenge, Subject No. 2” value in the data set with alcoholic human subjects [6] (2 G disulfiram, day 7) is “dizziness, facial flushing, blurred vision and headache, and their conjunctivae were observed to be injected”. The “subjective discomfort score, Subject No. 2, at 20 minutes” value with alcoholic human subjects [6] (2 G disulfiram, day 7, 20 minutes, scale 1 Very well to 5 Terrible, 3 = A little unwell) was 3. Besides, the “subjective discomfort score, Subject No. 2, at 40 minutes” value in the data set with alcoholic human subjects [6] (2 G disulfiram, day 7, 40 minutes, scale 1 Very well to 5 Terrible, 3 = A little unwell) is reported as 3. For the same compound, the “effects following ethanol challenge, Subject No. 2, day 28” value in the data set with alcoholic human subjects [6] (2 G disulfiram, day 28) is “no unpleasant symptoms”. Also, the “positive results of alcohol challenges (symptoms)” value in the data set with alcoholic human subjects [6] (after DSF injection, human subjects) was “elevated skin temperatures, dizziness, facial flushing, headache, and blurring of vision”. Moreover, the “adverse effects of oral disulfiram before the study” value in the data set with alcoholic human subjects [7] is listed as “no adverse effects”. Besides, in the data set with alcoholic humans (setting [8]), the “end of typical response after consuming alcohol” value is at most 30 min and the “onset of typical response after consuming alcohol” value is recorded as “five to ten”. For the same compound, in the data set on alcoholic humans (pretreatment with DSF, then ethyl alcohol, listed as DSF), the “Disulfiram-Ethanol Reaction symptoms” value is “nausea, palpitations, flushing, hyperventilation and hypotension”. Moreover, the “peak ethanol concentration in breath, Subject No. 1” value with ethanol in breath (1 G) was “elevated peak in subject No. 1, on days 7 and 14”. Moreover, the “peak ethanol concentration in breath, Subject No. 2” value in the data set on ethanol in breath (2 G) is given as “only a mild elevation in subject No. 2 on day 7”.

Source of the values: patent publication US4678809A, “Injectable fomulations of disulfiram for the treatment of alcoholism” (priority 1985, dated 1987).
